For `COc1cc2c(cc1OC)C(C(C#N)SCCCO)=NCC2` (stereo not drawn), the melting point was 155 to 156 °C. `CN(C1CCC(O)CC1)S(=O)(=O)c1ccc(Nc2nccc(Nc3ccc(F)cc3)n2)cc1` (stereo not drawn) gave a melting point of 203 °C. `O=S(=O)(NC(CO)CO)c1ccc(Br)s1` gave a melting point of 80 °C. `Cc1cc(-c2cc(C(F)F)n3ncc(C(=O)Nc4cccc(S(C)(=O)=O)c4)c3n2)ccc1Cl` gave a melting point of 270 °C. Compound `COc1ccc2nc(NC(=O)C(CC3CCCC3)c3ccc(S(=O)(=O)NCc4cccs4)cc3)sc2n1` (stereo not drawn) has a melting point of 263 to 268 °C. Work on `C[C@H](c1ccccc1)N1C(=O)N[C@@H]2C(=O)OC[C@@H]21` yielded a melting point of 123 to 125 °C. `CC1(C)C(=O)Nc2ccc(-c3cc(F)cc([N+](=O)[O-])c3)cc21` gave a melting point of 231 to 233 °C. `CC(C)OC(=O)c1nsc2ccc(-n3c(=O)cc(C(F)(F)F)n(C)c3=O)cc12` showed a melting point of 94 to 97 °C. Work on `COC(OC)C(CC#N)C(C)(C)S(=O)(=O)c1ccc(C)cc1` (stereo not drawn) yielded a melting point of 99 °C. `COC(=O)Cc1cccc(C(=O)c2ccccc2)c1N` gave a melting point of 52 to 54 °C. Compound `Cn1cc(Oc2cc(Cl)ccc2Cl)c(=O)c(-c2cccc(C(F)(F)F)c2)c1` has a melting point of 162 to 164 °C. In the case of `C[C@@H](NC(=O)c1noc(-c2ccc(Cl)cc2)n1)[C@](O)(Cn1cncn1)c1ccc(F)cc1F`, the melting point is reported as 79 to 83 °C. With `CCOC(=O)Cn1ncc(-c2ccccn2)c1-c1ccccc1` the melting point was 98 to 100 °C. In the case of `CSc1ccccc1-c1[nH]c2cccc3c2c1CCNC3=O`, the melting point is reported as 271 to 272 °C. Compound `CN(C)C1(c2ccc(F)cc2)CCC2(CC1)NCCc1c2[nH]c2ccccc12` (stereo not drawn) has a melting point of 249 to 250 °C. With `CCc1cc(-c2ccc(C(C)=O)cc2)ccc1OC` the melting point was 69 to 72 °C. Work on `Cc1c(C#N)c(=O)oc2ccc(Br)cc12` yielded a melting point of 187 to 192 °C. `CC(=Cc1ccc(N(C)C)cc1Cl)[N+](=O)[O-]` showed a melting point of 93 to 94 °C. In the case of `O=C1Nc2cc(Cl)ccc2OC1CCO` (stereo not drawn), the melting point is reported as 135 to 138 °C. `CC1(C)OC(C=Cc2cc(Cl)cc(Cl)c2)=CC1=O` gave a melting point of 129 to 131 °C. Work on `C#CCN1CCCc2ccc(OC(=O)Nc3ccccc3Br)cc21` yielded a melting point of 105 °C. With `Cc1cc(C=NNC(N)=S)ncc1N` the melting point was 235 to 236 °C. For `O=C(Cn1sc2ccccc2c1=O)N1CCN(C(=O)Oc2ccc([N+](=O)[O-])cc2)CC1`, the melting point was 114 to 118 °C. Compound `O=C(O)COc1ccc(SCc2cc(-c3ccc(Cl)cc3)no2)c2c1CCC2` has a melting point of 92 to 94 °C. Compound `Cc1c2ccccc2c(-c2ccc(O)cc2)c2c1sc1ccccc12` has a melting point of 184 to 185 °C. `COc1ccc(-c2cc(-c3ccc(O)c(F)c3)nc3c(Cl)cc(O)cc23)cc1` gave a melting point of 140 to 142 °C. `Cc1cc(Oc2ccc(Oc3ccc(N)c(C)c3)cc2)ccc1N` showed a melting point of 150 to 151 °C. `CC1(C)NC(=O)c2ccc(OCCBr)cc2O1` showed a melting point of 156 to 158 °C. For `CCN1c2ncccc2C(=NOC)Nc2c(C)cc(C)nc21`, the melting point was 164 to 166 °C. Work on `CCOC(=O)C1=C(C)NC(C#N)=C(C(=O)OCC)C1c1cc([N+](=O)[O-])ccc1Cl` (stereo not drawn) yielded a melting point of 204 to 206 °C. For `CN1Cc2c(-c3nc(CN4C(=O)c5ccccc5C4=O)no3)ncn2-c2ccccc2C1=O`, the melting point was 239 to 240 °C. Work on `Nc1c(CC(=O)N2CCC(O)CC2)cccc1Oc1ccccc1F` yielded a melting point of 160 to 161 °C. For `O=C(Nc1cccnc1NCc1ccc(Cl)cc1)c1ccccn1`, the melting point was 123 to 125 °C. For `O=C(O)CCC(=O)c1cccc(-n2ccnc2)c1`, the melting point was 140 to 142 °C. For `CCOC(=O)c1oc2ccc(Cl)cc2c1C(=O)OCC`, the melting point was 33 to 35 °C. With `CC(=O)N(C)Cc1ccc(F)cc1` the melting point was 48 to 54 °C. `CCC(=O)N(CCCc1ccccc1)C1CCc2c(cccc2NC(C)=O)C1` (stereo not drawn) showed a melting point of 148 to 150 °C. Compound `CCc1nc2ncnn2c(N[C@H]2CC[C@@H](C(C)(C)C)CC2)c1Cl` has a melting point of 120 to 122 °C. Compound `O=Cc1cnn(-c2c(Cl)cc(C(F)(F)F)cc2Cl)n1` has a melting point of 94 to 95 °C. `CC(C)(C)OC(=O)Nc1ccc(-c2ccccc2)cc1NC(=O)CC(=O)c1sccc1Cl` gave a melting point of 165 °C. With `COc1ccc(C#N)cc1C(C)(C)C=O` the melting point was 115 to 117 °C. `COc1cccc(OC(c2ccccc2)C(O)C(=O)NC(C)C)c1` (stereo not drawn) showed a melting point of 118 to 120 °C. With `COc1ccc(C2=NN(CCCO)C(=O)[C@H]3CCCC[C@@H]23)cc1OC` (relative stereo) the melting point was 94 to 97 °C. Work on `O=C(NCc1ccc(Oc2ccccc2)cc1)C1CCC1` yielded a melting point of 69 to 71 °C. `Cn1ncc(CO)c1-c1ccc(Cl)cc1C(O)c1ccccc1F` (stereo not drawn) showed a melting point of 152 to 155 °C. `Clc1cccc(Cl)c1C1CCN(Cc2[nH]c3ccccc3c2-c2ccccc2)CC1` showed a melting point of 162 to 164 °C. Work on `O=C(NCCO)c1ccc(-c2cccc3cc(Cc4cccc(C(F)(F)F)c4)sc23)nc1` yielded a melting point of 160 to 161 °C. In the case of `Cc1nc(-c2ccc3c(c2)CCCC3)c(Br)o1`, the melting point is reported as 97 to 98 °C. `CC(N)=CC(=O)c1ccc(Cl)cc1` gave a melting point of 126 to 130 °C. For `CC(=O)OC1CSC(Oc2cncc(-c3ccc(C)cc3Cl)c2)C(OC(C)=O)C1OC(C)=O` (stereo not drawn), the melting point was 162 °C. For `S=C1Nc2ccccc2C1(c1c[nH]c2ccccc12)C1CNc2ccccc21` (stereo not drawn), the melting point was > 260 °C. `CCCCCCCCCCOc1cc(OCCCCCCc2cccc(OCc3ccccc3)c2OCc2ccccc2)cc(C(=O)OC)c1` gave a melting point of 45 to 46 °C. Compound `CNC(=O)[C@H]1CN(c2ccc3c(c2)sc(=O)n3C(C)C)C(=O)O1` has a melting point of 172 to 174 °C. With `NC(=O)c1sc2nccc(N3CCCN(c4ccc(OCc5ccccc5)cc4)CC3)c2c1N` the melting point was 211 to 213 °C. `C=C1CCc2c(N3CCC(O)C3)c(F)cc3c(=O)c(C(=O)O)cn1c23` (stereo not drawn) gave a melting point of 190 to 196 °C. For `CCC(=O)NCc1cccc(-c2nc(=O)c3ccccc3s2)n1`, the melting point was 199 to 200 °C. In the case of `CCC(=O)S(=O)(=O)c1ccc(C=C(C)c2ccc3c(c2)C(C)(C)CCC3(C)C)cc1`, the melting point is reported as 140 to 141 °C. Compound `O=C(O)c1cnncc1C(F)(F)F` has a melting point of 150 to 151 °C. For `CN1CCC(C2c3ccccc3CCn3ncnc32)CC1` (stereo not drawn), the melting point was 134 °C. `CC1=C(Cl)C(c2ccccc2)C([N+](=O)[O-])=C(C)N1` (stereo not drawn) showed a melting point of 192 °C. Work on `CCN=C1SC(=CC(=O)O)C(=O)N1CC` yielded a melting point of 148 to 152 °C. For `Cc1cn(C(C)(C)C(=O)N(C)C)nc1-c1cccc(Cl)c1`, the melting point was 144 to 146 °C. `Cn1c(SC(F)F)n[nH]c1=O` showed a melting point of 87 °C. For `COc1cc(C(C)=O)ccc1OCCCCN1C2CCC1CC(c1n[nH]c3cc(F)ccc13)C2` (stereo not drawn), the melting point was 148 to 149 °C. For `OC1CC=C(c2ccc(F)cc2)CC1` (stereo not drawn), the melting point was 73 to 74.5 °C. For `CCOC(=O)c1cc(-c2csc(-c3ccnc(NC)c3)n2)c(=O)[nH]c1C(C)C`, the melting point was > 230 °C. For `CCCCCCCCCc1ccc(C(=O)CCCCC(=O)O)cc1`, the melting point was 29 to 31 °C. Compound `CC(C)(C)OC(=O)[C@H]1C[C@H](C(=O)O)[C@@H](c2ccccc2)N1C(=O)CNC(=O)Nc1ccc(Cl)cc1` (racemic) has a melting point of 248 °C. Work on `CC(=O)O[C@H]1[C@H](OC(C)=O)[C@@H](CCl)OC[C@@H]1OC(C)=O` yielded a melting point of 129 to 131 °C. `CN1CCN(C2Cc3ccccc3Sc3cc(F)c(F)cc32)CC1` (stereo not drawn) gave a melting point of 106 to 108 °C. Work on `O=C1Nc2ccc(Cl)cc2C12OCCCO2` yielded a melting point of 184 to 185 °C. In the case of `OC[C@H](O)CNc1ccc2cc(OCC3CC3)ccc2c1`, the melting point is reported as 138 °C. Compound `CCCCCCCCCCCOc1cccc(C(=O)O)c1` has a melting point of 88 °C. With `CC(=O)C=Cc1ccc(OCc2ccccc2)cc1` the melting point was 106 to 107 °C. Compound `CC(C)(C)OC(=O)NCC(=O)NCC(=O)Oc1ccc(-c2nn(C3CCCC3)c3c(F)cccc23)cc1` has a melting point of 103 to 104 °C. `COc1cc(OC)nc(Oc2cccc(Cl)c2N)n1` gave a melting point of 86 to 87 °C. `COC(=O)c1sccc1S(=O)(=O)NC(=O)Nc1nc(OC)c2cc(C)oc2n1` gave a melting point of 194 to 196 °C. `COc1ccc2c(c1)c1c(n2Cc2ccccc2)CCCC1=O` showed a melting point of 174 to 175 °C. For `CS(=O)(=O)c1ccc(C2=NN(S(=O)(=O)c3ccc(I)cc3)CCC2)cc1`, the melting point was 198 to 204 °C. With `O=C1CC(c2ccccc2)c2cccc(O)c21` (stereo not drawn) the melting point was 80 °C. Compound `CCOC(=O)C1(F)C(=O)NC(=O)NC1O/N=C\c1ccco1` (stereo not drawn) has a melting point of 152 to 153 °C. Work on `COc1ccc(S(=O)(=O)Nc2c(Nc3ccccc3)ncnc2Nc2ccccc2)cc1` yielded a melting point of 149 to 151 °C. `O=C1c2ccccc2C(O)N1CCCCSc1ccncc1` (stereo not drawn) gave a melting point of 144 to 145 °C. Compound `O=C(NCc1c[nH]c(=S)n1[C@H]1CCc2c(F)cc(F)cc2C1)c1ccco1` has a melting point of 227 to 231 °C. With `CCOC(=O)c1cc(NCc2ccccc2)c(OCC(F)(F)F)c(S(N)(=O)=O)c1` the melting point was 163 to 165 °C. In the case of `COc1ccc(C2Sc3ccc(OC)cc3N(CCN(C)C)C(=O)C2O)cc1` (stereo not drawn), the melting point is reported as 127 to 129 °C. In the case of `O=S(=O)(Nc1ccc2c(OCc3ccc(Cl)cc3Cl)cccc2c1)C(F)(F)F`, the melting point is reported as 142 to 144 °C. Work on `COc1ccc(Nc2ncc3ccc(=O)n(C4CCCC4)c3n2)cn1` yielded a melting point of 181 to 182 °C. Compound `Nc1nc(Nc2ccccc2)sc1C(=O)c1ccsc1` has a melting point of 171 to 172 °C. In the case of `CCC(=O)N(Cc1cccc2c1S(=O)(=O)N=C2C1=C(O)C(C(C)(C)C)N(Cc2ccc(F)c(C)c2)C1=O)S(C)(=O)=O` (stereo not drawn), the melting point is reported as 98 to 99.8 °C. For `Cc1noc(NS(=O)(=O)c2ccccc2-c2ccccc2)c1Br`, the melting point was 145 to 147 °C. With `Cc1cc(N)cc(C)c1O` the melting point was 135 to 137 °C. For `Brc1ccc(-c2csc(Br)n2)cc1`, the melting point was 117 to 119 °C. Compound `CN(C)C(=O)N1CCc2ccc(S(N)(=O)=O)cc2CC1` has a melting point of 192 to 193 °C. Work on `COc1cc(-c2nc3ccc(OC(F)(F)F)cc3[nH]2)ccc1O` yielded a melting point of 188 to 190 °C. Work on `NC(=O)NC1CCCc2ccsc21` (stereo not drawn) yielded a melting point of 211 to 213 °C. For `CCCCCCCCOc1cc2c(cc1/C(C)=C/c1ccc(C(=O)OC)cc1)C(C)(C)CCCS2(=O)=O`, the melting point was 79 to 80 °C. With `CCOc1ccc(F)cc1C(=O)c1sc2ncc(C#N)cc2c1N` the melting point was 196 °C. `COC(=O)c1cccc(NC(=O)C(C)CSC(C)=O)n1` (stereo not drawn) showed a melting point of 75 to 77 °C. In the case of `COC(=O)CCCCC1C(C(=O)OC)=C(C)NC(C)=C1C(=O)OC`, the melting point is reported as 80 to 81 °C. `O=C(O)Cc1c(Cl)nc(-c2ccccc2)n1Cc1ccccc1F` gave a melting point of 144 to 146 °C. In the case of `Cc1ccc(F)cc1NC(=O)CN1CCNC(CO)C1` (stereo not drawn), the melting point is reported as 128 °C. Compound `Cc1ccc2cccc(OCc3c(Cl)ccc(S(=O)(=O)N(C)Cc4cccc(C(=O)O)c4)c3Cl)c2n1` has a melting point of 204 °C.
